From ChEMBL document CHEMBL4400545 (Bioorg Med Chem, 2019)

Assays:
[1] = molecular target: Sodium- and chloride-dependent GABA transporter 1 (Mus musculus) (UniProt P31648); experiment: Inhibition of mouse GAT-1 assessed as percentage of remaining specific binding of NO711 at 1 uM after 4 hrs by LC-ESI-MS/ms analysis relative to control
[2] = molecular target: Sodium- and chloride-dependent GABA transporter 1 (Mus musculus) (UniProt P31648); experiment: Inhibition of mouse GAT-1 assessed as percentage of remaining specific binding of NO711 at 100 nM after 4 hrs by LC-ESI-MS/ms analysis relative to control
[3] = molecular target: T1, Sodium- and chloride-dependent GABA transporter 1 (Mus musculus, UniProt P31648); experiment: Inhibition of mouse GAT-1 expressed in HEK293 cells assessed as decrease in [3H]GABA uptake preincubated for 25 mins followed by [3H]GABA addition and measured after 4 mins by scintillation counting analysis; assay type: cell-based
[4] = molecular target: T1, Sodium- and chloride-dependent GABA transporter 1; experiment: Binding affinity to mouse GAT-1 expressed in HEK293 cells after 4 hrs in presence of NO711 by LC-ESI-MS/ms analysis; assay type: cell-based
[5] = molecular target: T2, GABA transporter 4 (Mus musculus, UniProt P31650); experiment: Inhibition of mouse GAT-4 expressed in HEK293 cells assessed as decrease in [3H]GABA uptake preincubated for 25 mins followed by [3H]GABA addition and measured after 4 mins by scintillation counting analysis; assay type: cell-based
T2 sequence (P31650 whole entry): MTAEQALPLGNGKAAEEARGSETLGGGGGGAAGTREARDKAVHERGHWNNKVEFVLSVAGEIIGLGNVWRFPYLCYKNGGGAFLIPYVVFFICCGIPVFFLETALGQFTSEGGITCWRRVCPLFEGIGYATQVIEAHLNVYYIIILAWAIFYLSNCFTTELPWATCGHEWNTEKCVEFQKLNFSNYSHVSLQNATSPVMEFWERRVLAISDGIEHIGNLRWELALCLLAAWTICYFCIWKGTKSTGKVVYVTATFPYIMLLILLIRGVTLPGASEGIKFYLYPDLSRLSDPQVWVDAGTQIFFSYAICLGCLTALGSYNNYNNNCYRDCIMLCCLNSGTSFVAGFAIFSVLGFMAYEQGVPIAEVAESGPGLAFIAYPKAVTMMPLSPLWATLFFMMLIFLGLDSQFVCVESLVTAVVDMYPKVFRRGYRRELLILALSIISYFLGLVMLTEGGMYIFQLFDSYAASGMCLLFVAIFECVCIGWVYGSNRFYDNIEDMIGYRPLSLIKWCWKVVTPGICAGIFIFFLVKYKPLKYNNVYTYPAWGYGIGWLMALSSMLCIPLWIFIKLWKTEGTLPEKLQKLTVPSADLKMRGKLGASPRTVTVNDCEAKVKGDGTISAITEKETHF

[6] = test system: Sodium- and chloride-dependent GABA transporter 2 (Mus musculus); experiment: Inhibition of mouse GAT-3 expressed in HEK293 cells assessed as remaining [3H]GABA uptake at 100 uM preincubated for 25 mins followed by [3H]GABA addition and measured after 4 mins by scintillation counting analysis
[7] = molecular target: T3, GABA transporter 4 (Mus musculus) (UniProt P31650); experiment: Inhibition of mouse GAT-4 expressed in HEK293 cells assessed as remaining [3H]GABA uptake at 100 uM preincubated for 25 mins followed by [3H]GABA addition and measured after 4 mins by scintillation counting analysis; assay type: cell-based
T3 sequence (whole entry): T2 sequence (P31650 whole entry)

[8] = test system: Sodium- and chloride-dependent betaine transporter (Mus musculus); experiment: Inhibition of mouse GAT-2 expressed in HEK293 cells assessed as remaining [3H]GABA uptake at 100 uM preincubated for 25 mins followed by [3H]GABA addition and measured after 10 mins by scintillation counting analysis
[9] = molecular target: T4, Sodium- and chloride-dependent GABA transporter 1 (Rattus norvegicus, UniProt P23978); experiment: Inhibition of GAT-1 in rat brain homogenate assessed as decrease in [3H]GABA uptake preincubated for 8 mins followed by [3H]GABA addition and measured after 8 mins by scintillation counting analysis; assay type: tissue-based
[10] = molecular target: T4, Sodium- and chloride-dependent GABA transporter 1; experiment: Inhibition of GAT-1 in rat brain homogenate; assay type: tissue-based
[11] = molecular target: Sodium- and chloride-dependent GABA transporter 1 (Mus musculus) (UniProt P31648); experiment: Inhibition of mouse GAT-1 assessed as percentage of remaining specific binding of NO711 at 40 uM after 4 hrs by LC-ESI-MS/ms analysis relative to control
[12] = molecular target: Sodium- and chloride-dependent GABA transporter 1 (Mus musculus) (UniProt P31648); experiment: Inhibition of mouse GAT-1 assessed as percentage of remaining specific binding of NO711 at 4 uM after 4 hrs by LC-ESI-MS/ms analysis relative to control

| Structure (SMILES) | Activity [1] | Activity [2] | further results |
| --- | --- | --- | --- |
| O=C(O)C1CCCN(CCO/N=C/c2cccc(-c3ccccc3)c2)C1 (racemic) | 87% | 20% |  |
| O=C(O)C1CCCN(CCO/N=C/c2ccccc2-c2ccc(Cl)cc2Cl)C1 (racemic) | 5% | Below limit of detection | IC50 [3]: 38.9 nM; Ki [4]: 10.5 nM; IC50 [5]: 70800 nM |
| O=C(O)[C@@H]1CCCN(CCO/N=C/c2ccccc2-c2ccc(Cl)cc2Cl)C1 |  |  | IC50 [3]: 60.3 nM; Ki [4]: 5.89 nM; IC50 [5]: 63100 nM |
| O=C(O)C1CCCN(CCO/N=C/c2sccc2-c2ccc(F)cc2Cl)C1 (racemic) | 24% | Below limit of detection |  |
| O=C(O)C1CCCN(CCO/N=C/c2cc(F)ccc2-c2ccccc2Cl)C1 (racemic) | 41% | 16% |  |
| O=C(O)C1CCCN(CCO/N=C/c2sccc2-c2ccc(Cl)cc2Cl)C1 (racemic) | 12% | Below limit of detection | IC50 [3]: 28.2 nM; Ki [4]: 11.7 nM; IC50 [5]: 72400 nM |
| O=C(O)C1=CCCN(CCO/N=C/c2ccccc2-c2ccc(F)cc2F)C1 |  |  | IC50 [3]: 56.2 nM; Ki [4]: 4.47 nM |
| O=C(O)C1CCCN(CCO/N=C/c2ccccc2-c2cccc(Cl)c2)C1 (racemic) | Below limit of detection | 38% |  |
| O=C(O)[C@@H]1CCCN(CCO/N=C/c2ccccc2-c2ccc(F)cc2Cl)C1 |  |  | IC50 [3]: 32.4 nM; Ki [4]: 2.82 nM; Activity [6]: 77.7%; Activity [7]: 50.9%; Activity [8]: 50.1% |
| O=C(O)C1CCCN(CCO/N=C/c2ccc(-c3ccccc3)cc2)C1 (racemic) | 80% | 20% |  |
| O=C(O)C1CCCN(CCO/N=C/c2cc(F)ccc2-c2ccc(Cl)cc2Cl)C1 (racemic) | 16% | Below limit of detection | IC50 [3]: 170 nM; Ki [4]: 17 nM; IC50 [5]: 32400 nM |
| O=C(O)C1CCCN(CCO/N=C/c2cccn2-c2ccc(C(F)(F)F)cc2)C1 (racemic) | 91% | Below limit of detection |  |
| O=C(O)C1CCCN(CCO/N=C/c2ccccc2-c2cccs2)C1 (racemic) | 7% | 48% |  |
| O=C(O)C1CCCN(CCO/N=C/c2ccc(-c3ccccc3OC(F)(F)F)o2)C1 (racemic) | 84% | Below limit of detection |  |
| O=C(O)C1=CCCN(CCON=C(c2ccccc2)c2ccccc2)C1 |  |  | IC50 [9]: 40 nM |
| O=C(O)C1CCCN(CCO/N=C/c2c[nH]nc2-c2ccc(F)cc2)C1 (racemic) | 7% | 48% |  |
| O=C(O)C1CCCN(CCO/N=C/c2ccc(-c3ccc(C(F)(F)F)cc3Cl)o2)C1 (racemic) | 83% | Below limit of detection |  |
| O=C(O)[C@@H]1CCCN(CCO/N=C/c2ccccc2-c2ccc(F)cc2F)C1 |  |  | IC50 [3]: 102 nM; Ki [4]: 5.89 nM; Activity [6]: 75.5%; Activity [7]: 62.5%; Activity [8]: 56.6% |
| O=C(O)C1CCCN(CCO/N=C/c2cccnc2-c2ccc(Cl)cc2Cl)C1 (racemic) | 31% | Below limit of detection |  |
| O=C(O)C1=CCCN(CCO/N=C/c2ccccc2-c2ccc(Cl)cc2Cl)C1 |  |  | IC50 [3]: 5.37 nM; Ki [4]: 5.13 nM |
| Cc1onc(-c2ccc(Cl)cc2)c1/C=N/OCCN1CCCC(C(=O)O)C1 (racemic) | 7% | 48% |  |
| O=C(O)C1CCCN(CCO/N=C/c2ccccc2-c2ccc3ccccc3c2)C1 (racemic) | 89% | Below limit of detection |  |
| Cc1ccsc1C(=CCCN1CCC[C@@H](C(=O)O)C1)c1sccc1C [TIAGABINE] |  |  | Ki [4]: 55 nM |
| O=C(O)[C@@H]1CCCN(CCO/N=C(\Cc2ccccc2F)c2ccccc2F)C1 |  |  | IC50 [10]: 80 nM |
| NOCCN1CCCC(C(=O)O)C1 (racemic) |  |  | Activity [11]: 92%; Activity [12]: 99% |
| CC(/C=N/OCCN1CCCC(C(=O)O)C1)(CCC#N)c1ccccc1 (racemic) | 7% | 48% |  |
| O=CC(c1ccccc1)c1ccccc1 | 90% |  |  |

Now from value to compound, other results behind:

| Activity [1] | Activity [2] | Structure (SMILES) | further results |
| --- | --- | --- | --- |
| Below limit of detection | 38% | O=C(O)C1CCCN(CCO/N=C/c2ccccc2-c2ccc(F)cc2)C1 (racemic) |  |
| 41% | 20% | O=C(O)C1CCCN(CCO/N=C/C(c2ccccc2)c2ccccc2)C1 (racemic) |  |
| 11% | Below limit of detection | O=C(O)C1CCCN(CCO/N=C/c2ccccc2-c2ccc(F)cc2Cl)C1 (racemic) | IC50 [3]: 66.1 nM; Ki [4]: 10 nM; Activity [6]: 62.6%; Activity [7]: 80.9%; Activity [8]: 61.6% |
| 39% | 17% | O=C(O)C1CCCN(CCO/N=C/c2ccccc2-c2c(F)cccc2F)C1 (racemic) |  |
| 42% | 16% | O=C(O)C1CCCN(CCO/N=C/c2cc(F)ccc2-c2ccccc2F)C1 (racemic) |  |
| Below limit of detection | 38% | O=C(O)C1CCCN(CCO/N=C/c2ccccc2-c2cccc(F)c2)C1 (racemic) |  |
| 24% | 17% | O=C(O)C1CCCN(CCO/N=C/c2ccccc2-c2ccc(Cl)cc2F)C1 (racemic) |  |
| 26% | Below limit of detection | O=C(O)C1CCCN(CCO/N=C/c2ccccc2-c2ccccc2Cl)C1 (racemic) |  |
| 39% | 17% | O=C(O)C1CCCN(CCO/N=C/c2ccccc2-c2cccc(F)c2F)C1 (racemic) |  |
| Below limit of detection | 38% | O=C(O)C1CCCN(CCO/N=C/c2ccccc2-c2ccc(Cl)cc2)C1 (racemic) |  |
| 58% | 16% | O=C(O)C1CCCN(CCO/N=C/c2cc(F)ccc2-c2ccccc2)C1 (racemic) |  |
| 17% | 16% | O=C(O)C1CCCN(CCO/N=C/c2ccccc2-c2ccc(F)cc2F)C1 (racemic) | IC50 [3]: 85.1 nM; Ki [4]: 13.8 nM; Activity [6]: 90.9%; Activity [7]: 62.5%; Activity [8]: 78.3% |
| 25% | Below limit of detection | O=C(O)C1CCCN(CCO/N=C/c2ccccc2-c2ccccc2F)C1 (racemic) |  |
| 71% | 17% | O=C(O)C1CCCN(CCO/N=C/c2ccccc2-c2cc(F)ccc2F)C1 (racemic) |  |
| 47% | 20% | O=C(O)C1CCCN(CCO/N=C/c2ccccc2-c2ccccc2)C1 (racemic) |  |
